A short description of data set [1]: Mydriasis: effect on the size of the pupil. Also on record: species or system male Crl:COBS-CD(SD)BR rats. Conditions: in vivo, po; Rat, percent of maximum pupil diameter obtained by atropine, 30-120 min. How it is done: The effect on the size of the pupil was tested in male Crl:COBS-CD(SD)BR rats having a body weight of 100 to 130 gm by using a […]-binocular microscope with a graduated lens and a 10-fold magnification. The compounds were suspended in a 0.2% methyl cellulose solution and administered using an esophageal tube; groups of 5 animals were used per dose. The control animals received the same volume (1 ml/100 gm of body weight) of the vehicle. The diameter of the pupil was measured before administering the test compound, and 30, 60, 90 and 120 minutes after the treatment. The activity was expressed in percent with regard to the maximum diameter obtained by means of atropine. The ED50 was determined by linear regression analysis of the probits according to the method described by D. J. Finney (supra).

The next data set is described as follows: Acute toxicity. Conditions: in vivo, po; Mouse. How it is done: The acute toxicity was determined in male CrL-COBS-CD-I(ICR) mice of an average body weight of 22 to 24 gm which had been fasted for 24 hours. Different doses of each compound were administered to groups of 5 to 10 animals by means of an esophageal tube, and the LD50 -values were calculated by the method of D. J. Finney (supra).

The test system of the next data set is stomach ulcers. Nature of the data set: Inhibiting effect on the formation of stomach ulcers (acetyl salicylic acid and close-meshed wire cage), method of P. A. Brown. Conditions: po, 0.5 h; Rat, p.o., acetyl salicylic acid 30 min after compound, then wire cage; read-out: Ulcer Inhibition ED50. Format: in vivo, female Crl:COBS-CD(SD)Br rats. As for the experimental part: The inhibiting effect on the formation of stomach ulcers was tested in female Crl:COBS-CD(SD)Br rats having a weight of 130 to 160 gm, according to the method of P. A. Brown, European J. Pharmacol. 51, 275 (1978). The animals were fasted for 24 hours, and the compounds were suspended in a 0.2% methyl cellulose solution and administered to the animals using an esophageal tube. After 30 minutes the animals received acetyl salicylic acid perorally at a dose of 8 mg/kg, and after another 30 minutes the animals were placed at room temperature into a close-meshed wire cage. After one hour the animals were killed by dislocating the neck vertebra, the stomach was removed, opened by cutting along the great curvature, the inner side was outwardly spread out on a test tube, and the presence of stomach ulcers was recorded. The activity of the compounds was determined by counting the numbers of stomachs which were free of ulcers. The ED50 was calculated according to the method described by J. T. Litchfield and F. Wilcoxon, J. Pharmac. Exp. Therap. 96, 99 (1949).

The subject of data set [2] is gastric secretion (free and total hydrochloric acid in the gastric fluid). The data set is described as follows: Inhibition of gastric fluid secretion (liberation of acid), pylorus ligature, method of Shay et al. Format: in vivo, male Crl:COBS (WI) BR Albino rats. Conditions: Rat, i.d., 4 hours after pylorus ligature. As for the experimental part:
The inhibiting activity on the gastric secretion was tested in male Crl:COBS (WI) BR Albino rats having a weight of 100 to 125 gm, according to the method of Shay et al., Gastroenterology 26, 906 (1954). The rats were fasted for 24 hours and then anesthetized with ether. The […] was opened, and the pylorus was tied up. […] The control animals received the same volume of the vehicle (0.2% methyl cellulose solution). After 4 hours the animals were killed by dislocating the neck vertebra, the stomachs were removed, opened along the great curvature and the gastric fluid collected. The free and total hydrochloric acid in the gastric fluid was measured by titration with N/10 sodium hydroxide solution. The results were determined in percent from the data received from the treated and untreated animals. The ED50 values were calculated by linear regression analysis of the probits according to the method described by D. J. Finney, Probit Analysis, Cambridge University Press, 1971.

Counter-ions that a name gives are not always drawn.

One may read the ED50 as the dose that gives a 50% effect, or the effect in half of the subjects. What is called LD50 is the dose at which mortality reaches 50%. Read a low LD50 as greater toxicity.

For `CN1C(=O)c2ccccc2N(C(=O)CN2CCCC2)c2ccccc21` [E, 5,10-dihydro-10-methyl-5-(pyrrolidino-acetyl)-11H-dibenzo[b,e,][1,4]diazepin-11-one hydrochloride], the ED50 in data set [1] is 9.84 mg/kg; with stomach ulcers, 8.4 mg/kg; in data set [2] it was 18.1 mg/kg. This compound returned an LD50 in “Acute toxicity” of 816 mg/kg.
The corresponding values for `O=C1Nc2ccccc2N(C(=O)CN2CCCCC2)c2ccccc21` [F, 5,10-dihydro-5-(piperidino-acetyl)-11H-dibenzo[b,e,][1,4]diazepin-11-one] are 5.82 mg/kg, 10.4 mg/kg, 6.17 mg/kg and 600 mg/kg.
In the same order, the values of `Cl.O=C1Nc2ccccc2N(C(=O)CCN2CCCC2)c2ccccc21` [A, 5,10-dihydro-5-(3-pyrrolidino-propionyl)-11H-dibenzo[b,e][1,4]diazepin-11-one hydrochloride] are 3.61 mg/kg, 1.27 mg/kg, 0.2 mg/kg and 609 mg/kg.
As to `Cl.O=C1Nc2ccccc2N(C(=O)CCN2CCCCC2)c2ccccc21` [C, 5,10-dihydro-5-(3-piperidino-propionyl)-11H-dibenzo[b,e][1,4]diazepin-11-one hydrochloride], the results for the ED50 (in data set [1]; in the data set on stomach ulcers; in data set [2]) were 3.84 mg/kg, 2.1 mg/kg and 1.6 mg/kg, respectively. The LD50 in the data set “Acute toxicity” came to 813 mg/kg.
`CN1C(=O)c2ccccc2N(C(=O)CCN2CCCC2)c2ccccc21` [B, 5,10-dihydro-10-methyl-5-(3-pyrrolidino-propionyl)-11H-dibenzo[b,e,][1,4]diazepin-11-one hydrochloride] displayed an LD50 in “Acute toxicity” of 574 mg/kg. In addition, the ED50 in the data set on stomach ulcers came out at 2.05 mg/kg; in data set [2], 0.73 mg/kg.
`O=C1Nc2ccccc2N(C(=O)CN2CCCC2)c2ccccc21` [D, 5,10-dihydro-5-(pyrrolidino-acetyl)-11H-dibenzo[b,e][1,4]diazepin-11-one]: the ED50 in data set [1] is 9.91 mg/kg; in the data set on stomach ulcers, 10.2 mg/kg; in data set [2], 8.15 mg/kg. In “Acute toxicity”, this compound returned an LD50 of 860 mg/kg.
